Experiments:
Experiment in all cases: radiometric filter-binding kinase assay, Kinase HotSpot
Settings in all cases: compound 0.5 µM; ATP 10 µM
ULK1 (human) = ULK1 (human) (UniProt O75385)
GRK6 (human) = GRK6 (human) (UniProt P43250)
MAPK11 (human) = MAPK11 (human) (UniProt Q15759)
HIPK1 (human) = HIPK1 (human) (UniProt Q86Z02)
DYRK4 (human) = DYRK4 (human) (UniProt Q9NR20)
STK11 (human) = STK11 (human) (UniProt Q15831)
MAPK14 (human) = MAPK14 (human) (UniProt Q16539)
MAPK10 (human) = MAPK10 (human) (UniProt P53779)
MAP3K14 (human) = MAP3K14 (human) (UniProt Q99558)
PIM1 (human) = PIM1 (human) (UniProt P11309)
PRKCA (human) = PRKCA (human) (UniProt P17252)
MYLK (human) = MYLK (human) (UniProt Q15746)
KDR (human) = KDR (human) (UniProt P35968)
WNK3 (human) = WNK3 (human) (UniProt Q9BYP7)
TEC (human) = TEC (human) (UniProt P42680)
PRKACA (human) = PRKACA (human) (UniProt P17612)
CAMK2A (human) = CAMK2A (human) (UniProt Q9UQM7)
SGK3 (human) = SGK3 (human) (UniProt Q96BR1)
INSRR (human) = INSRR (human) (UniProt P14616)
SGK2 (human) = SGK2 (human) (UniProt Q9HBY8)
MAP3K2 (human) = MAP3K2 (human) (UniProt Q9Y2U5)
PRKD1 (human) = PRKD1 (human) (UniProt Q15139)
MARK3 (human) = MARK3 (human) (UniProt P27448)
RPS6KA6 KD1 KD2 (human) = RPS6KA6 KD1 KD2 (human) (UniProt Q9UK32)
CSF1R (human) = CSF1R (human) (UniProt P07333)
CDK2 CCNE1 (human) = CDK2 CCNE1 (human) (UniProt P24941+P24864)
STK16 (human) = STK16 (human) (UniProt O75716)
NEK9 (human) = NEK9 (human) (UniProt Q8TD19)
EPHA5 (human) = EPHA5 (human) (UniProt P54756)
RPS6KA5 KD2 (human) = RPS6KA5 KD2 (human) (UniProt O75582)
CSNK1D (human) = CSNK1D (human) (UniProt P48730)
PTK2B (human) = PTK2B (human) (UniProt Q14289)
PASK (human) = PASK (human) (UniProt Q96RG2)
PDPK1 (human) = PDPK1 (human) (UniProt O15530)
CAMK2G (human) = CAMK2G (human) (UniProt Q13555)
CDK6 CCND3 (human) = CDK6 CCND3 (human) (UniProt P30281+Q00534)
ROCK2 (human) = ROCK2 (human) (UniProt O75116)
JAK3 JH1 JH2 (human) = JAK3 JH1 JH2 (human) (UniProt P52333)
MLTK (human) = MLTK (human) (UniProt Q9NYL2)
FGFR1 (human) = FGFR1 (human) (UniProt P11362)
NEK3 (human) = NEK3 (human) (UniProt P51956)
NEK11 (human) = NEK11 (human) (UniProt Q8NG66)

NEK9 (human), sequence (Q8TD19 whole entry, looked up): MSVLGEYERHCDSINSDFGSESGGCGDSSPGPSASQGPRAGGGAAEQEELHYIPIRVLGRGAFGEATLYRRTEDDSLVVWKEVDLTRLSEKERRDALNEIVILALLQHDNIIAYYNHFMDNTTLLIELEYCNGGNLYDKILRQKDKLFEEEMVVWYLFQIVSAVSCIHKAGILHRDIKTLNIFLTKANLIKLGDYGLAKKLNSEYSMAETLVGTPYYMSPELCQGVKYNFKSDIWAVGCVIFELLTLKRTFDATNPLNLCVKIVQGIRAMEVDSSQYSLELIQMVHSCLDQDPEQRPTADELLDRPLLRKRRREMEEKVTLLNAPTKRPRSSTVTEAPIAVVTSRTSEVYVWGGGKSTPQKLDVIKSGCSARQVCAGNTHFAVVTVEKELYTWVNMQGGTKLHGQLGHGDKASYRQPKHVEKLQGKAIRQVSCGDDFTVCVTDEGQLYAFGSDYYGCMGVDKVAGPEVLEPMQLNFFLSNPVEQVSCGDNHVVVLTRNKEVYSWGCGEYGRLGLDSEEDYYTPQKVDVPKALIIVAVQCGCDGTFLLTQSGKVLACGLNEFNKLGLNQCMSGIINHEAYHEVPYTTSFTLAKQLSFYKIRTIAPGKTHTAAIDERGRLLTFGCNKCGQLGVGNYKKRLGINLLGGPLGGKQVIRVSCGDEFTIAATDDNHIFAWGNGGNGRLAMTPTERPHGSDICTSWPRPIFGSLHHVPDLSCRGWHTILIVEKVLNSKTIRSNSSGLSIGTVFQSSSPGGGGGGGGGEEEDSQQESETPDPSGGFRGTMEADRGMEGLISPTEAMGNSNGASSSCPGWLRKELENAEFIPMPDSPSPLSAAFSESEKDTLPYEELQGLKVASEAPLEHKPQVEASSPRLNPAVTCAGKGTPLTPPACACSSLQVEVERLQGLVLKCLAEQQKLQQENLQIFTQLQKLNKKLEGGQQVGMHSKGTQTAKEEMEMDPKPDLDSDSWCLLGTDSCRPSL
MAP3K2 (human), sequence (Q9Y2U5 whole entry, looked up): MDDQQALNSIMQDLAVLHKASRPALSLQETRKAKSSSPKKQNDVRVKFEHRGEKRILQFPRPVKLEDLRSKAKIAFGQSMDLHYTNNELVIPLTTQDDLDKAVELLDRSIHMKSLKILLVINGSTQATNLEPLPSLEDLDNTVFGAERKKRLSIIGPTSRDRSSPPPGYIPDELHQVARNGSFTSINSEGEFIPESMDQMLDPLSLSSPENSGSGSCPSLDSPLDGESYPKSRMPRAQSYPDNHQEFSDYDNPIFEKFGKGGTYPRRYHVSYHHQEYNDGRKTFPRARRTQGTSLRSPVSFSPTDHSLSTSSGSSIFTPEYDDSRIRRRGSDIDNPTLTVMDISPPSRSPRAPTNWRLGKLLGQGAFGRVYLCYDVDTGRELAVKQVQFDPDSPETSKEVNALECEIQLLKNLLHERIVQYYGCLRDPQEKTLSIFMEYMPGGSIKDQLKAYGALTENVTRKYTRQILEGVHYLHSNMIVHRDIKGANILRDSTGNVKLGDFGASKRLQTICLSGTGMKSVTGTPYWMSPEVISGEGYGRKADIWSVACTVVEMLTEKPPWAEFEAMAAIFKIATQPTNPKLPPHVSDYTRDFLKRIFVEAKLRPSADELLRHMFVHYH
MARK3 (human), sequence (P27448 whole entry, looked up): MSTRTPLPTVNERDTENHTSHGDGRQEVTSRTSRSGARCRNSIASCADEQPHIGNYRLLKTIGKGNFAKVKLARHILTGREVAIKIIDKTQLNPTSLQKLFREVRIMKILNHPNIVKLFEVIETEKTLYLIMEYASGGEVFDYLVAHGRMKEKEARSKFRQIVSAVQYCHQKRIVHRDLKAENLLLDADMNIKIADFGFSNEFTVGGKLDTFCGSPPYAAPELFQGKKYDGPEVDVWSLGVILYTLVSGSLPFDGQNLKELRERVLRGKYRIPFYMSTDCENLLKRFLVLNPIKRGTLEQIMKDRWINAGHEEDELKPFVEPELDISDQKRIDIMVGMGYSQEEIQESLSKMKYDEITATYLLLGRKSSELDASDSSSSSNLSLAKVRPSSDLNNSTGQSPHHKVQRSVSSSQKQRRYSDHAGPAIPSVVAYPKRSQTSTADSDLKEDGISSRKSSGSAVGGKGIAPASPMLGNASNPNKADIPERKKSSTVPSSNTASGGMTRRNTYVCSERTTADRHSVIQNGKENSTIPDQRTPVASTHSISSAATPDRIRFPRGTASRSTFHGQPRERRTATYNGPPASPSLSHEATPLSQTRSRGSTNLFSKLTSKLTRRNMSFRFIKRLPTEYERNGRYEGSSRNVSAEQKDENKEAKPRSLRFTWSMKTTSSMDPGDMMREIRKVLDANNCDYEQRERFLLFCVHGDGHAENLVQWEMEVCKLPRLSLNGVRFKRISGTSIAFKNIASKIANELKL
CSF1R (human), sequence (P07333 whole entry, looked up): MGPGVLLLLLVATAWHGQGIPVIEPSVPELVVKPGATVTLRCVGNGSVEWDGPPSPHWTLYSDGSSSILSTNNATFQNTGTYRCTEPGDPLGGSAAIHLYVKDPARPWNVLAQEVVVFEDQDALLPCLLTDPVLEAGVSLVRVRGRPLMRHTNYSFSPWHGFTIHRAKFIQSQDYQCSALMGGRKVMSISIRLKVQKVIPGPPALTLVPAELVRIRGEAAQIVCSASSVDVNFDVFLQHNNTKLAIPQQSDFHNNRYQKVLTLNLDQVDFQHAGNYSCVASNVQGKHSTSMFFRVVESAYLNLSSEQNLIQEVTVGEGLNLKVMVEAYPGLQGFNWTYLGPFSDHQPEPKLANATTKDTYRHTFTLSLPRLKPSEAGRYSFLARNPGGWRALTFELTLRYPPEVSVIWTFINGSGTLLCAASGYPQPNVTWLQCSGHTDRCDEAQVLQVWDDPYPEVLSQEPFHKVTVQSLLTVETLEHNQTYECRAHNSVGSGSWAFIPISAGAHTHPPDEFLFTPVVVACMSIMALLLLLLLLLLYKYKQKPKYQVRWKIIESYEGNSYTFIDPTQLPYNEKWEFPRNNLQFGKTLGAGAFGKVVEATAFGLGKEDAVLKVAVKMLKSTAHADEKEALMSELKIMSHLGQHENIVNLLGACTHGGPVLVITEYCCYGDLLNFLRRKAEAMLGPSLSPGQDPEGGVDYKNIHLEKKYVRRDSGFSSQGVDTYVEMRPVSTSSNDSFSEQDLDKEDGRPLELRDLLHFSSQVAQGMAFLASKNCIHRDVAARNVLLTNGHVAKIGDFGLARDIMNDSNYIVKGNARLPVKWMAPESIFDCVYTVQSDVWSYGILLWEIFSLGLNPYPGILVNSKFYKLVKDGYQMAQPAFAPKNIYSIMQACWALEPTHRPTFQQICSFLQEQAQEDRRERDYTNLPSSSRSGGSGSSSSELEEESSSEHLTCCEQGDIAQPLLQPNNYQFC
MLTK (human), sequence (Q9NYL2 whole entry, looked up): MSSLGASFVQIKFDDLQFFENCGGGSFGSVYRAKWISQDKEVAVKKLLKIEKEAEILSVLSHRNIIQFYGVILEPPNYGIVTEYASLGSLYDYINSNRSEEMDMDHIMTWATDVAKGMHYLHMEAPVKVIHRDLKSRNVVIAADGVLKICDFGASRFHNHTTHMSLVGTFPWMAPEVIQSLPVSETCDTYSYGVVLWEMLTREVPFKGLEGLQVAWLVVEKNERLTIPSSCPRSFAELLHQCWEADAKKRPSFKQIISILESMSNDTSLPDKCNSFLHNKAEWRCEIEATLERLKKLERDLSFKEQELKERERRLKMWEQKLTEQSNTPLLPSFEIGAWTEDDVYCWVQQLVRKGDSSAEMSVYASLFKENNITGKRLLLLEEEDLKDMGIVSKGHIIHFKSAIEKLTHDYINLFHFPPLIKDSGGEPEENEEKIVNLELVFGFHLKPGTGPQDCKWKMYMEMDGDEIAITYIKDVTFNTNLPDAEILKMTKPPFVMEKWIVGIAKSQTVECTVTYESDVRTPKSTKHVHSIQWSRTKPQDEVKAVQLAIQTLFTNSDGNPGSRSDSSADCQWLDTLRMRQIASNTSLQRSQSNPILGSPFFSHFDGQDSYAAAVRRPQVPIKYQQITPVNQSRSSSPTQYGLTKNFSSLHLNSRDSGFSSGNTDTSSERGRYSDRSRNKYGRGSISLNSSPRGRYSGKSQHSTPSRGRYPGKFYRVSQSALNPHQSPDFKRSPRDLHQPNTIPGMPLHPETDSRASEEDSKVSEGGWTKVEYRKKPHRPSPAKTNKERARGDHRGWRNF
CDK6 CCND3 (human), sequence (P30281 whole entry, looked up): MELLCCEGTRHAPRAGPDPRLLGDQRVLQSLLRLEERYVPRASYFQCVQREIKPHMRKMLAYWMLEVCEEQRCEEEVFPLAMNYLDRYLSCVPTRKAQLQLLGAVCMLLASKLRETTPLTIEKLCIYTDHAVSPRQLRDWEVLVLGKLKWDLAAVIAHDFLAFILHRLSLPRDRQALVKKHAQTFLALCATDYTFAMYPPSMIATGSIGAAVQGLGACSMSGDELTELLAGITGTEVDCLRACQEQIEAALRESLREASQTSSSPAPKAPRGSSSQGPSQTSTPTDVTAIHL
CDK6 CCND3 (human), sequence (Q00534 whole entry, looked up): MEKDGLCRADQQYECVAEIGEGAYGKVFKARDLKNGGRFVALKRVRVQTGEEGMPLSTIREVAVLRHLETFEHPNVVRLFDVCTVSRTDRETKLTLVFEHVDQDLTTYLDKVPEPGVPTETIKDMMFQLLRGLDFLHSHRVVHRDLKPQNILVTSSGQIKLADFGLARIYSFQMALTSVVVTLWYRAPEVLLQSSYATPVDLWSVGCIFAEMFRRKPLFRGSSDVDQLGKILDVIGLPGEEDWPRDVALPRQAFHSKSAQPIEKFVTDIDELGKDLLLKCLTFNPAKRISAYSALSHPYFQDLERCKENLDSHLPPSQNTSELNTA
STK16 (human), sequence (O75716 whole entry, looked up): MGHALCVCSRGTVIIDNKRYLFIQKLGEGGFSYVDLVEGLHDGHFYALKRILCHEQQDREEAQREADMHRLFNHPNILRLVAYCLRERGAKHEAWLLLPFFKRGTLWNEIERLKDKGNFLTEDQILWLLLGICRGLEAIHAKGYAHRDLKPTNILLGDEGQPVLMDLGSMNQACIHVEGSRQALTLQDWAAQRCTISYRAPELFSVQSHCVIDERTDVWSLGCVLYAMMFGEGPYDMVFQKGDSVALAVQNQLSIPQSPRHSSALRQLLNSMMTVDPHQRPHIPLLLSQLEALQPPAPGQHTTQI

O=C1NC(=O)c2cc(Nc3ccc(F)cc3)c(Nc3ccc(F)cc3)cc21
residual activity (ULK1 (human)): 102% | residual activity (GRK6 (human)): 98.7% | residual activity (MAPK11 (human)): 94.6% | residual activity (HIPK1 (human)): 102% | residual activity (DYRK4 (human)): 98.6% | residual activity (STK11 (human)): 98.2% | residual activity (MAPK14 (human)): 88.3% | residual activity (MAPK10 (human)): 97.3% | residual activity (MAP3K14 (human)): 117% | residual activity (PIM1 (human)): 81.8% | residual activity (PRKCA (human)): 99.3% | residual activity (MYLK (human)): 100% | residual activity (KDR (human)): 97.9% | residual activity (WNK3 (human)): 92.7% | residual activity (TEC (human)): 102% | residual activity (PRKACA (human)): 94.5% | residual activity (CAMK2A (human)): 103% | residual activity (SGK3 (human)): 102% | residual activity (INSRR (human)): 111% | residual activity (SGK2 (human)): 99.7% | residual activity (MAP3K2 (human)): 94.8% | residual activity (PRKD1 (human)): 92.2% | residual activity (MARK3 (human)): 90.8% | residual activity (RPS6KA6 KD1 KD2 (human)): 97.4% | residual activity (CSF1R (human)): 104% | residual activity (CDK2 CCNE1 (human)): 94.3% | residual activity (STK16 (human)): 85.8% | residual activity (NEK9 (human)): 107% | residual activity (EPHA5 (human)): 95.4% | residual activity (RPS6KA5 KD2 (human)): 93.6% | residual activity (CSNK1D (human)): 109% | residual activity (PTK2B (human)): 111% | residual activity (PASK (human)): 91.3% | residual activity (PDPK1 (human)): 102% | residual activity (CAMK2G (human)): 101% | residual activity (CDK6 CCND3 (human)): 89.9% | residual activity (ROCK2 (human)): 92.8% | residual activity (JAK3 JH1 JH2 (human)): 93.9% | residual activity (MLTK (human)): 94.5% | residual activity (FGFR1 (human)): 92.1% | residual activity (NEK3 (human)): 99.1% | residual activity (NEK11 (human)): 103%
